# System: yeast genes (expressed mRNA)
# Test: DNA chip measurement of expressed mRNA of yeast genes after culture with a toxic chemical substance
# Type: cell-based, Saccharomyces cerevisiae S288C
# How it was run: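 Two-hour exposure of growing S. cerevisiae S288C (YPD, 25° C) to a sublethal toxicant preceded RNA isolation. Fluorescent cDNA was hybridized to a whole-genome array; a treated-to-untreated signal ratio of two or more was taken as significant.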
structure (smiles),measurement,setting,value
"C[S+](C)[O-] [(15), Dimethyl sulfoxide]",The level of expressed mRNA in the presence of chemical substance/The level of expressed mRNA in the absence of chemical substance,"yeast gene YJL152W, cultured two hours with substance",0.8
same,The level of expressed mRNA in the presence of chemical substance/The level of expressed mRNA in the absence of chemical substance,"yeast gene YJL186W, cultured two hours with substance",2.5
same,level of expressed mRNA in the presence of chemical substance / level in the absence of chemical substance,"yeast gene YJR030C, cultured two hours with the chemical substance",0.8
same,The level of expressed mRNA in the presence of chemical substance/The level of expressed mRNA in the absence of chemical substance,"yeast gene YJR074W, cultured two hours with substance",3.4
same,level of expressed mRNA in the presence of chemical substance / level in the absence of chemical substance,"yeast gene YKL051W, cultured two hours with the chemical substance",1.5
same,level of expressed mRNA in the presence of chemical substance / level in the absence of chemical substance,"yeast gene YKL097C, cultured two hours with the chemical substance",0.8
same,level of expressed mRNA in the presence of chemical substance / level in the absence of chemical substance,"yeast gene YKL100C, cultured two hours with the chemical substance",1.7
same,level of expressed mRNA in the presence of chemical substance / level in the absence of chemical substance,"yeast gene YKR040C, cultured two hours with the chemical substance",1.1
same,The level of expressed mRNA in the presence of chemical substance/The level of expressed mRNA in the absence of chemical substance,"yeast gene YKR046C, cultured two hours with substance",2.9
same,The level of expressed mRNA in the presence of chemical substance/The level of expressed mRNA in the absence of chemical substance,"yeast gene YLR041W, cultured two hours with the chemical substance",1.3
same,The level of expressed mRNA in the presence of chemical substance/The level of expressed mRNA in the absence of chemical substance,"yeast gene YLR132C, cultured two hours with substance",2.3
same,The level of expressed mRNA in the presence of chemical substance/The level of expressed mRNA in the absence of chemical substance,"yeast gene YLR149C, cultured two hours with substance",1.3
same,The level of expressed mRNA in the presence of chemical substance/The level of expressed mRNA in the absence of chemical substance,"yeast gene YLR151C, cultured two hours with the substance",0.7
same,The level of expressed mRNA in the presence of chemical substance/The level of expressed mRNA in the absence of chemical substance,"yeast gene YLR152C, cultured two hours with substance",0.8
same,The level of expressed mRNA in the presence of chemical substance/The level of expressed mRNA in the absence of chemical substance,"yeast gene YLR205C, cultured two hours with substance",2.5
same,level of expressed mRNA in the presence of chemical substance / level in the absence of chemical substance,"yeast gene YLR226W, cultured two hours with the chemical substance",1.3
same,The level of expressed mRNA in the presence of chemical substance/The level of expressed mRNA in the absence of chemical substance,"yeast gene YLR304C, mitochondria-located protein gene, cultured two hours with substance",1.6
same,The level of expressed mRNA in the presence of chemical substance/The level of expressed mRNA in the absence of chemical substance,yeast gene YLR307W,3.9
same,level of expressed mRNA in the presence of chemical substance / level in the absence of chemical substance,"yeast gene YLR338W, cultured two hours with the chemical substance",1.5
same,The level of expressed mRNA in the presence of chemical substance/The level of expressed mRNA in the absence of chemical substance,yeast gene YLR391W,3.9
same,level of expressed mRNA in the presence of chemical substance / level in the absence of chemical substance,"yeast gene YLR392C, cultured two hours with the chemical substance",0.5
same,The level of expressed mRNA in the presence of chemical substance/The level of expressed mRNA in the absence of chemical substance,"yeast gene YLR395C, mitochondria-located protein gene, cultured two hours with substance",0.4
same,level of expressed mRNA in the presence of chemical substance / level in the absence of chemical substance,"yeast gene YLR415C, cultured two hours with the chemical substance",1.0
same,level of expressed mRNA in the presence of chemical substance / level in the absence of chemical substance,"yeast gene YLR427W, cultured two hours with the chemical substance",0.8
same,The level of expressed mRNA in the presence of chemical substance/The level of expressed mRNA in the absence of chemical substance,"yeast gene YLR444C, cultured two hours with the substance",1.3
same,level of expressed mRNA in the presence of chemical substance / level in the absence of chemical substance,"yeast gene YML013W, cultured two hours with the chemical substance",2.2
same,level of expressed mRNA in the presence of chemical substance / level in the absence of chemical substance,"yeast gene YML029W, cultured two hours with the chemical substance",0.8
same,level of expressed mRNA in the presence of chemical substance / level in the absence of chemical substance,"yeast gene YML041C, cultured two hours with the chemical substance",1.0
same,level of expressed mRNA in the presence of chemical substance / level in the absence of chemical substance,"yeast gene YML079W, cultured two hours with the chemical substance",0.3
same,The level of expressed mRNA in the presence of chemical substance/The level of expressed mRNA in the absence of chemical substance,"yeast gene YML128C, cultured two hours with substance",2.6
same,The level of expressed mRNA in the presence of chemical substance/The level of expressed mRNA in the absence of chemical substance,"yeast gene YMR031C, cultured two hours with the substance",0.7
same,level of expressed mRNA in the presence of chemical substance / level in the absence of chemical substance,"yeast gene YMR068W, cultured two hours with the chemical substance",2.2
same,level of expressed mRNA in the presence of chemical substance / level in the absence of chemical substance,"yeast gene YMR071C, cultured two hours with the chemical substance",0.8
same,The level of expressed mRNA in the presence of chemical substance/The level of expressed mRNA in the absence of chemical substance,"yeast gene YMR083W, mitochondria-located protein gene, cultured two hours with substance",1.3
same,The level of expressed mRNA in the presence of chemical substance/The level of expressed mRNA in the absence of chemical substance,"yeast gene YMR090W, cultured two hours with substance",1.9
same,level of expressed mRNA in the presence of chemical substance / level in the absence of chemical substance,"yeast gene YMR160W, cultured two hours with the chemical substance",1.5
same,level of expressed mRNA in the presence of chemical substance / level in the absence of chemical substance,"yeast gene YNL026W, cultured two hours with the chemical substance",0.8
same,level of expressed mRNA in the presence of chemical substance / level in the absence of chemical substance,"yeast gene YNL058C, cultured two hours with the chemical substance",2.2
same,level of expressed mRNA in the presence of chemical substance / level in the absence of chemical substance,"yeast gene YNL063W, cultured two hours with the chemical substance",0.7
same,level of expressed mRNA in the presence of chemical substance / level in the absence of chemical substance,"yeast gene YNL176C, cultured two hours with the chemical substance",0.8
same,level of expressed mRNA in the presence of chemical substance / level in the absence of chemical substance,"yeast gene YNL194C, cultured two hours with the chemical substance",0.5
same,level of expressed mRNA in the presence of chemical substance / level in the absence of chemical substance,"yeast gene YNL200C, cultured two hours with the chemical substance",0.8
same,The level of expressed mRNA in the presence of chemical substance/The level of expressed mRNA in the absence of chemical substance,"yeast gene YNL241C, cultured for two hours with substance",7.0
same,level of expressed mRNA in the presence of chemical substance / level in the absence of chemical substance,"yeast gene YNL253W, cultured two hours with the chemical substance",0.5
same,level of expressed mRNA in the presence of chemical substance / level in the absence of chemical substance,"yeast gene YNL276C, cultured two hours with the chemical substance",0.5
same,level of expressed mRNA in the presence of chemical substance / level in the absence of chemical substance,"yeast gene YNR051C, cultured two hours with the chemical substance",1.2
same,The level of expressed mRNA in the presence of chemical substance/The level of expressed mRNA in the absence of chemical substance,"yeast gene YNR074C, cultured two hours with substance",0.8
same,level of expressed mRNA in the presence of chemical substance / level in the absence of chemical substance,"yeast gene YOL026C, cultured two hours with the chemical substance",0.9
same,The level of expressed mRNA in the presence of chemical substance/The level of expressed mRNA in the absence of chemical substance,"yeast gene YOR007C, cultured two hours with substance",1.3
same,level of expressed mRNA in the presence of chemical substance / level in the absence of chemical substance,"yeast gene YOR022C, cultured two hours with the chemical substance",0.8
same,The level of expressed mRNA in the presence of chemical substance/The level of expressed mRNA in the absence of chemical substance,"yeast gene YOR049C, cultured two hours with substance",1.3
same,level of expressed mRNA in the presence of chemical substance / level in the absence of chemical substance,"yeast gene YOR087W, cultured two hours with the chemical substance",0.8
same,level of expressed mRNA in the presence of chemical substance / level in the absence of chemical substance,"yeast gene YOR138C, cultured two hours with the chemical substance",1.0
same,The level of expressed mRNA in the presence of chemical substance/The level of expressed mRNA in the absence of chemical substance,"yeast gene YOR152C, cultured two hours with substance",3.6
same,The level of expressed mRNA in the presence of chemical substance/The level of expressed mRNA in the absence of chemical substance,"yeast gene YOR187W, mitochondria-located protein gene, cultured two hours with substance",1.3
same,The level of expressed mRNA in the presence of chemical substance/The level of expressed mRNA in the absence of chemical substance,"yeast gene YOR215C, cultured two hours with substance",0.8
same,The level of expressed mRNA in the presence of chemical substance/The level of expressed mRNA in the absence of chemical substance,"yeast gene YOR248W, cultured two hours with substance",8.8
same,level of expressed mRNA in the presence of chemical substance / level in the absence of chemical substance,"yeast gene YOR253W, cultured two hours with the chemical substance",1.1
same,level of expressed mRNA in the presence of chemical substance / level in the absence of chemical substance,"yeast gene YOR267C, cultured two hours with the chemical substance",1.3
same,level of expressed mRNA in the presence of chemical substance / level in the absence of chemical substance,"yeast gene YOR325W, cultured two hours with the chemical substance",0.7
same,The level of expressed mRNA in the presence of chemical substance/The level of expressed mRNA in the absence of chemical substance,"yeast gene YOR382W, cultured two hours with substance",2.1
same,The level of expressed mRNA in the presence of chemical substance/The level of expressed mRNA in the absence of chemical substance,"yeast gene YOR386W, mitochondria-located protein gene, cultured two hours with substance",1.3
same,level of expressed mRNA in the presence of chemical substance / level in the absence of chemical substance,"yeast gene YPL005W, cultured two hours with the chemical substance",1.2
same,The level of expressed mRNA in the presence of chemical substance/The level of expressed mRNA in the absence of chemical substance,"yeast gene YPL087W, cultured two hours with substance",1.3
same,level of expressed mRNA in the presence of chemical substance / level in the absence of chemical substance,"yeast gene YPL150W, cultured two hours with the chemical substance",1.1
same,level of expressed mRNA in the presence of chemical substance / level in the absence of chemical substance,"yeast gene YPL152W, cultured two hours with the chemical substance",2.3
same,level of expressed mRNA in the presence of chemical substance / level in the absence of chemical substance,"yeast gene YPL168W, cultured two hours with the chemical substance",0.8
same,level of expressed mRNA in the presence of chemical substance / level in the absence of chemical substance,"yeast gene YPL180W, cultured two hours with the chemical substance",0.7
same,level of expressed mRNA in the presence of chemical substance / level in the absence of chemical substance,"yeast gene YPL188W, cultured two hours with the chemical substance",0.8
same,The level of expressed mRNA in the presence of chemical substance/The level of expressed mRNA in the absence of chemical substance,"yeast gene YPL206C, cultured two hours with substance",0.8
same,level of expressed mRNA in the presence of chemical substance / level in the absence of chemical substance,"yeast gene YPL221W, cultured two hours with the chemical substance",1.0
same,level of expressed mRNA in the presence of chemical substance / level in the absence of chemical substance,"yeast gene YPL225W, cultured two hours with the chemical substance",0.9
same,The level of expressed mRNA in the presence of chemical substance/The level of expressed mRNA in the absence of chemical substance,"yeast gene YPR014C, cultured two hours with the substance",0.9
same,The level of expressed mRNA in the presence of chemical substance/The level of expressed mRNA in the absence of chemical substance,"yeast gene YPR023C, cultured two hours with substance",0.8
same,The level of expressed mRNA in the presence of chemical substance/The level of expressed mRNA in the absence of chemical substance,"yeast gene YPR037C, mitochondria-located protein gene, cultured two hours with substance",4.1
same,level of expressed mRNA in the presence of chemical substance / level in the absence of chemical substance,"yeast gene YPR049C, cultured two hours with the chemical substance",1.5
same,level of expressed mRNA in the presence of chemical substance / level in the absence of chemical substance,"yeast gene YPR146C, cultured two hours with the chemical substance",0.9
same,level of expressed mRNA in the presence of chemical substance / level in the absence of chemical substance,"yeast gene YPR148C, cultured two hours with the chemical substance",1.7
same,level of expressed mRNA in the presence of chemical substance / level in the absence of chemical substance,"yeast gene YPR172W, cultured two hours with the chemical substance",1.5

# Source: US20100041089A1, “IMPROVED METHOD FOR DETECTING CHEMICAL […]” (priority 2006, published 2010)
